# Experimental data taken from patent publication US6969507B2, “Imaging sexual response” (Epix Pharmaceuticals, Inc., priority 1999, dated 2005).
# Assay: Dynamic MS-325 contrast-enhanced MRI of the genitalia/perineum during neutral and erotic video
# Type: in vivo, human
# Conditions: eight healthy women; 0.05 or 0.02 mmol/kg intravenous
# Protocol: Imaging of the genitalia was performed in four pre-menopausal and four post-menopausal healthy, sexually functional women subjects after administration of MS-325 (MS-325, EPIX Medical, Inc.). All volunteers signed an IRB-approved informed consent form for the study.
# Six of the subjects received an intravenous injection of 0.05 mmol/kg of MS-325 and two received an intravenous injection of 0.02 mmol/kg of MS-325. Dynamic MRI (3D SPGR, 11/1.7/35°) of the perineum was performed on all subjects while they viewed videos containing first neutral material, then erotic material and finally neutral material via a fiberoptic audiovideo system. Each segment of neutral or erotic material was up to 15 minutes in length. Subjects also filled out questionnaires in response to the videos that had them subjectively rate their degree of sexual arousal.
# Serial imaging was performed at least every 3 minutes, beginning just prior to contrast injection and continuing up to 45 minutes post injection. […] Clitoral volume was measured at each time point. Relative regional blood volume was determined from signal intensity versus time curves and compared with subjective measures of arousal.
# In these studies, MRI was compared with vaginal photoplethysmography to confirm that MRI accurately assessed the vascular component of the arousal response.
structure (smiles),measurement,value
O=C([O-])CN(CCN(CC(=O)[O-])C[C@H](COP(=O)([O-])OC1CCC(c2ccccc2)(c2ccccc2)CC1)N(CC(=O)[O-])CC(=O)[O-])CC(=O)[O-].[Gd+3].[H+].[H+].[H+] [MS-325],tolerability of the procedure (contrast injection and MRI),tolerated
